# Measured values published in patent US8138340B2, “Bicyclononene derivatives” (Actelion Pharmaceuticals Ltd., priority 2004, dated 2012).
# Biological target: T1, recombinant human renin (Homo sapiens, UniProt P00797)
# T1 sequence (P00797 67-406): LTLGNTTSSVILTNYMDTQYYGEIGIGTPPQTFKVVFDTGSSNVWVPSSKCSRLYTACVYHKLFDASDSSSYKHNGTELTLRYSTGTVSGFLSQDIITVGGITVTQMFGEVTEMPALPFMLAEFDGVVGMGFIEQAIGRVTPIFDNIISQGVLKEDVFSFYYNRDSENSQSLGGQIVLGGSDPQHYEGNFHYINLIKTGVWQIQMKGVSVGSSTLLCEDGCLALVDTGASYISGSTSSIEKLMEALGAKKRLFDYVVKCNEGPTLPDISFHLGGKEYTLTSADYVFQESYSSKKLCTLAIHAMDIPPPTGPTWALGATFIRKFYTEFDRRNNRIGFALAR
# Test: Primary renin inhibition assay: IC50 in buffer, 384 well MTP (AngI quantified by EIA)
# Format: biochemical
# Details: human tetradecapeptide substrate, assay buffer pH 7.4, 37° C. for 3 h
# Method: 1. Enzyme Immuno Assay (EIA) to Estimate AngI Accumulation and Renin Inhibition
# 1.1 Preparation of AngI-BSA Conjugate
# 1.3 mg (1 μmol) of AngI [1-10 (Bachem, H-1680)] and 17 mg (0.26 μmol) of BSA (Fluka, 05475) were dissolved in 4 mL of 0.1M phosphate buffer, pH 7.4, after which 2 mL of a 1:100 dilution of glutaraldehyde in H2O (Sigma G-5882) was added dropwise. The mixture was incubated overnight at 4° C., then dialyzed against 2 liters of 0.9% NaCl, twice for 4 h at rt, followed by dialysis against 2 liters of PBS 1× overnight at rt. The solution was then filtered with a Syringe filter, 0.45 μm (Nalgene, Cat. No. 194-2545). The conjugate can be stored in polypropylene tubes in 0.05% sodium azide at 4° C. for at least 12 months.
# 1.2 Preparation of BSA-AngI Coated MTP
# Microtiter plates (MPT384, MaxiSorp™, Nunc) were incubated overnight at 4° C. with 80 μl of AngI (1-10)/BSA conjugate, diluted 1:100'000 in PBS 1× in a teflon beaker (exact dilution dependent on batch of conjugate), emptied, filled with 90 μl of blocking solution [0.5% BSA (Sigma A-2153) in PBS 1×, 0.02% NaN3], and incubated for at least 2 h at rt, or overnight at 4° C. 96 well MTP (MaxiSorp™, Nunc) were coated with […] conjugate and blocked with 250 μl blocking solution as above, except that the blocking solution contained 3% BSA. The plates can be stored in blocking solution at 4° C. for 1 month.
# 1.3 AngI-EIA in 384 well MTP
# The AngI (1-10)/BSA coated MTP were washed 3 times with wash buffer (PBS 1×, 0.01% Tween 20) and filled with 75 μl of primary antibody solution (anti-AngI antiserum, pre-diluted 1:10 in horse serum), diluted to a final concentration of 1:100'000 in assay buffer (PBS 1×, 1 mM EDTA, 0.1% BSA, pH 7.4). 5 μl of the renin reaction (or standards in assay buffer) (see below) were added to the primary antibody solution and the plates were incubated overnight at 4° C. After the incubation the plates were washed 3 times with wash buffer and incubated with secondary antibody [anti-rabbit IgG, linked to horseradish peroxidase (Amersham Bioscience, NA 934V), diluted 1:2'000 in wash buffer] for 2 h at rt. The plates were washed 3 times with wash buffer and then incubated for 1 h at rt with substrate solution [1.89 mM ABTS (2.2′-azino-di-(3-ethyl-benzthiazolinsulfonate)] (Roche Diagnostics, 102 946) and 2.36 mM H2O2 [30%, (Fluka, 95300] in substrate buffer (0.1M sodium acetate, 0.05M sodium dihydrogen phosphate, pH 4.2). The OD of the plate was read at 405 nm in a microplate reader (FLUOStar Optima from BMG). The production of AngI during the renin reaction was quantified by comparing the OD of the sample with the OD of a standard curve of AngI(1-10), measured in parallel.
# 2. Primary Renin Inhibition Assay: IC50 in Buffer, 384 well MTP
# The renin assay was adapted from an assay described before (Fischli W. et al., Hypertension, 1991, 18:22-31) and consists of two steps: in the first step, recombinant human renin is incubated with its substrate (commercial human tetradecapeptide renin substrate) to create the product Angiotensin I (AngI). In the second step, the accumulated AngI is measured by an immunological assay (enzyme immuno assay, EIA). The detailed description of this assay is found below. The EIA is very sensitive and well suited for renin activity measurements in buffer or in plasma. Due to the low concentration of renin used in this assay (2 fmol per assay tube or 10 pM) it is possible to measure inhibitor affinities in this primary assay down to low pM concentration.
# Recombinant human renin (3 pg/μl) in assay buffer (PBS 1×, 1 mM EDTA, 0.1% BSA, pH 7.4), human tetradecapeptide (1-14) substrate (Bachem, M-1120) [5 μM in 10 mM HCl], hydroxyquinoline sulfate (Fluka, 55100) [30 mM in H2O] and assay buffer were premixed at 4° C. at a ratio of 100:30:10:145. 47.5 μl per well of this premix was transferred into polypropylene plates (MTP384, Nunc). […]
row,Compound,IC50
1,"O=C(C1=C(c2nc(CCCOc3cc(C(F)(F)F)ccc3Cl)cs2)C[C@@H]2CNC[C@H]1N2)N(Cc1cccc(Cl)c1Cl)C1CC1 (racemic) [Example 2, (rac.)-(1R*, 5S*)-7-{4-[3-(2-Chloro-5-trifluoromethylphenoxy)propyl]thiazol-2-yl}-3,9-diazabicyclo[3.3.1]non-6-ene-6-carboxylic acid cyclopropyl-(2,3-dichlorobenzyl)amide]",94 nM
2,"Cc1ccc(F)c(OCCOc2ncc(C3=C(C(=O)N(Cc4cccc(Cl)c4Cl)C4CC4)[C@H]4CNC[C@@H](C3)N4)s2)c1Cl (racemic) [Example 7, (rac.)-(1R*, 5S*)-7-{2-[2-(2-Chloro-6-fluoro-3-methylphenoxy)ethoxy]thiazol-5-yl}-3,9-diazabicyclo[3.3.1]non-6-ene-6-carboxylic acid cyclopropyl-(2,3-dichlorobenzyl)-amide]",2.9 nM
3,"Cc1ccc(F)c(OCCCc2coc(C3=C(C(=O)N(Cc4cccc(Cl)c4Cl)C4CC4)[C@H]4CNC[C@@H](C3)N4)n2)c1Cl (racemic) [Example 12, (rac.)-(1R*, 5S*)-7-{4-[3-(2-Chloro-6-fluoro-3-methylphenoxy)propyl]oxazol-2-yl}-3,9-diazabicyclo[3.3.1]non-6-ene-6-carboxylic acid cyclopropyl-(2,3-dichlorobenzyl)-amide]",46 nM
4,"COc1cccc(CN(C(=O)C2=C(c3cnc(CCCOc4c(Cl)cc(C)cc4Cl)s3)C[C@@H]3CNC[C@H]2N3)C2CC2)c1C (racemic) [Example 21, (rac.)-(1R*, 5S*)-7-{2-[3-(2,6-Dichloro-4-methylphenoxy)propyl]thiazol-5-yl}-3,9-diazabicyclo[3.3.1]non-6-ene-6-carboxylic acid cyclopropyl-(3-methoxy-2-methylbenzyl)amide]",4.4 nM
5,"COc1cccc(CN(C(=O)C2=C(c3cnc(OCCOc4c(Cl)cc(C)cc4Cl)s3)C[C@@H]3CNC[C@H]2N3)C2CC2)c1C (racemic) [Example 35, (rac.)-(1R*, 5S*)-7-{2-[2-(2,6-Dichloro-4-methylphenoxy)ethoxy]thiazol-5-yl}-3,9-diazabicyclo[3.3.1]non-6-ene-6-carboxylic acid cyclopropyl-(3-methoxy-2-methylbenzyl)amide]",1.3 nM
6,"Cc1cc(Cl)c(OCCOc2ncc(C3=C(C(=O)N(Cc4cccc(F)c4F)C4CC4)[C@H]4CNC[C@@H](C3)N4)s2)c(Cl)c1 (racemic) [Example 45, (rac.)-(1R*, 5S*)-7-{2-[2-(2,6-Dichloro-4-methylphenoxy)ethoxy]thiazol-5-yl}-3,9-diazabicyclo[3.3.1]non-6-ene-6-carboxylic acid cyclopropyl-(2,3-difluorobenzyl)amide]",15 nM
7,"Cc1cc(Cl)c(OCCOc2ncc(C3=C(C(=O)N(Cc4cccc(Cl)c4C)C4CC4)[C@H]4CNC[C@@H](C3)N4)s2)c(Cl)c1 (racemic) [Example 52, (rac.)-(1R*, 5S*)-7-{2-[2-(2,6-Dichloro-4-methylphenoxy)ethoxy]thiazol-5-yl}-3,9-diazabicyclo[3.3.1]non-6-ene-6-carboxylic acid (3-chloro-2-methylbenzyl)cyclopropyl-amide]",1.1 nM
8,"(rac.)-(1R*, 5S*)-7-{4-[3-(3-Chloro-2,6-difluorophenoxy)propyl]thiazol-2-yl}-3,9-diazabicyclo[3.3.1]non-6-ene-6-carboxylic acid cyclopropyl-(2,3-dichloro-benzyl)amide [Example 3]",16 nM
9,"(rac.)-(1R*, 5S*)-7-{5-[2-(4-Chloro-3,5-dimethylphenoxy)ethyl]-4-methylthiazol-2-yl}-3,9-diazabicyclo[3.3.1]non-6-ene-6-carboxylic acid cyclopropyl-(3-methoxy-2-methylbenzyl)amide [Example 1]",57 nM
